Laboratory results published in patent US6235284A, “Synthetic polypeptides belonging to the hepatitis C virus (HCV) and which can be used especially for detecting the latter” (Bio Merieux, priority 1992, dated 2001).

System: anti-HCV antibodies (HCV-positive sera)
Assay: ELISA detection of anti-HCV antibodies in HCV-positive sera with adsorbed peptides
Format: binding, human
Method: The reactivity of these three peptides towards the sera of individuals infected with the hepatitis C virus, termed (HCV) positive, was evaluated in an ELISA test according to the procedure described below.
Detection of anti-HCV Antibodies by ELISA
The wells of a microtiter plate of "NUNC MAXISORB™" trademark are saturated with 100 μl of a solution containing the peptide or a mixture of peptides (10 μg/ml) for 2 hours at 37° C. The plate is then emptied, then washed with a wash buffer containing 0.05% TWEEN™ 20(polysorbate 20). The wells are saturated with 100 μl of wash buffer supplemented with 10% goat serum (v/v), then incubated for 30 minutes at 37° C., then washed again as above. The sera to be analyzed are diluted to the appropriate dilution with saturation buffer. The incubation of the sera is 1 hour at 37° C. The wells are again washed. The solution of conjugate (goat IgG to human IgG labelled with peroxidase) at a dilution of 1/1000 in the saturation buffer is then added and the incubation lasts for 90 minutes at 37° C. After washing, the solution of orthophenylenediamine substrate is added. After 10 minutes, the reaction is stopped with 50 μl of H2 SO4 and the optical density is read at 492 nm. It should be noted that all the tests were carried out in duplicate.
For that, the different peptides are adsorbed on the microplates at a concentration of 10 μg/ml and the sera are used at 1/100 dilution.
The values obtained, which are collated in Table 1 below, correspond to the optical density (OD) multiplied by 10^3, at 492 nm.
For each serum the experiment was carried out in duplicate. The **** are values outside the upper scale.
The different peptides are absorbed onto microplates at a concentration of 10 μg/ml and the sera are used at the dilution stated.
The values obtained, which are collated in Table 2 below, correspond to the optical density at 492 nm. All the experiments were carried out in duplicate.
Each serum was, in a first instance, tested at the dilution 1/100.
The values given correspond to the optical density read at 492 nm multiplied by the factor 10^3.

Row | Substance | optical density at 492 nm (Table 4, serum A 8, 1/1000) [OD × 10^3] | optical density at 492 nm (Table 4, serum A 8, 1/10,000) [OD × 10^3] | optical density at 492 nm (Table 4, serum A 9, 1/1000) [OD × 10^3] | optical density at 492 nm (Table 4, serum A 9, 1/10,000) [OD × 10^3] | optical density at 492 nm (Table 4, serum A 10, 1/1000) [OD × 10^3] | optical density at 492 nm (Table 4, serum A 10, 1/10,000) [OD × 10^3] | optical density at 492 nm (Table 4, serum A 11, 1/100) [OD × 10^3] | optical density at 492 nm (Table 4, serum A 11, 1/1000) [OD × 10^3] | optical density at 492 nm (Table 4, serum A 11, 1/10,000) [OD × 10^3] | optical density at 492 nm (Table 4, serum A 12, 1/10,000) [OD × 10^3] | optical density at 492 nm (Table 4, serum P 1, 1/100) [OD × 10^3] | optical density at 492 nm (Table 4, serum P 2, 1/100) [OD × 10^3] | optical density at 492 nm (Table 4, serum P 3, 1/100) [OD × 10^3] | optical density at 492 nm (Table 4, serum P 4, 1/1000) [OD × 10^3] | optical density at 492 nm (Table 4, serum P 4, 1/10,000) [OD × 10^3] | optical density at 492 nm (Table 4, serum P 5, 1/10,000) [OD × 10^3] | optical density at 492 nm (Table 4, serum P 7, 1/10,000) [OD × 10^3] | optical density at 492 nm (Table 4, serum P 8, 1/10,000) [OD × 10^3] | optical density at 492 nm (Table 4, serum P 10, 1/100) [OD × 10^3] | optical density at 492 nm (Table 4, serum P 14, 1/10,000) [OD × 10^3] | further results
1 | P27Y: peptide corresponding to the amino acid sequence 7 to 35 of the CORE protein (PQRKTKRNTNRRPQDVKFPGGGQIVGGVY) | 1198 | 118 | 1388 | 182 | 334 | 31 | 1937 | 226 | 33 | 365 | 620 | 891 | 1470 | 2111 | 324 | 856 | 1667 | 654 | 60 | 566 | optical density at 492 nm (Table 4, serum A 10, 1/100): 2308 OD × 10^3; optical density at 492 nm (Table 4, serum P 16, 1/1000): 913 OD × 10^3; optical density at 492 nm (Table 4, serum P 16, 1/10,000): 104 OD × 10^3; optical density at 492 nm (Table 4, serum P 17, 1/100): 2300 OD × 10^3; optical density at 492 nm (Table 4, serum P 23, 1/100): 138 OD × 10^3; optical density at 492 nm (Table 4, serum P 24, 1/100): 1063 OD × 10^3; optical density at 492 nm (Table 4, serum P 29, 1/100): 347 OD × 10^3; optical density at 492 nm (Table 4, serum P 30, 1/100): 2274 OD × 10^3
2 | P37G: peptide corresponding to the amino acid sequence 7 to 45 of the CORE protein (PQRKTKRNTNRRPQDVKFPGGGQIVGGVYLLPRRGPRLG) |  |  |  |  |  |  |  |  |  |  |  |  |  |  |  |  |  |  |  |  | optical density at 492 nm (Table 5, serum A8, 1/10,000): 525 OD × 10^3; optical density at 492 nm (Table 5, serum A 9, 1/1000): 2059 OD × 10^3; optical density at 492 nm (Table 5, serum A 9, 1/10,000): 275 OD × 10^3; optical density at 492 nm (Table 5, serum A10, 1/10,000): 1215 OD × 10^3; optical density at 492 nm (Table 5, serum A11, 1/10,000): 321 OD × 10^3; optical density at 492 nm (Table 5, serum A12, 1/10,000): 823 OD × 10^3; optical density at 492 nm (Table 5, serum A13, 1/10,000): 1061 OD × 10^3; optical density at 492 nm (Table 5, serum A14, 1/1000): 539 OD × 10^3; optical density at 492 nm (Table 5, serum A14, 1/10,000): 65 OD × 10^3; optical density at 492 nm (Table 5, serum A15, 1/10,000): 905 OD × 10^3; optical density at 492 nm (Table 5, serum A16, 1/10,000): 2003 OD × 10^3; optical density at 492 nm (Table 5, serum A19, 1/10,000): 446 OD × 10^3; optical density at 492 nm (Table 5, serum A20, 1/10,000): 2338 OD × 10^3; optical density at 492 nm (Table 5, serum A21, 1/1000): 652 OD × 10^3; optical density at 492 nm (Table 5, serum A21, 1/10,000): 90 OD × 10^3; optical density at 492 nm (Table 5, serum A22, 1/1000): 702 OD × 10^3; optical density at 492 nm (Table 5, serum A22, 1/10,000): 102 OD × 10^3; optical density at 492 nm (Table 5, serum A23, 1/10,000): 557 OD × 10^3; reactivity towards HCV-positive sera (in words): little or no difference is observed in reactivity
3 | S32Y: peptide corresponding to the amino acid sequence 2 to 35 of the CORE protein (STNPKPQRKTKRNTNRRPQDVKFPGGGQIVGGVY) | 1372 | 173 | 1941 | 297 | 373 | 33 | 2240 | 228 | 36 | 588 | 703 | 1177 | 1576 | 2165 | 369 | 1242 | 1932 | 1068 | 78 | 601 | optical density at 492 nm (Table 4, serum P 16, 1/1000): 983 OD × 10^3; optical density at 492 nm (Table 4, serum P 16, 1/10,000): 124 OD × 10^3; optical density at 492 nm (Table 4, serum P 23, 1/100): 157 OD × 10^3; optical density at 492 nm (Table 4, serum P 24, 1/100): 1214 OD × 10^3; optical density at 492 nm (Table 4, serum P 29, 1/100): 400 OD × 10^3
